{"source": "patent US6355799B1", "about": "“Substituted benzene compounds, process for their preparation, and herbicidal and defoliant compositions containing them” (ISK Americas Incorporated, priority 1997, dated 2002)", "type_in_all_cases": "in vivo", "key": {"[1]": {"test_system": "field corn (Zea mays L., var. Dekalb 535, CORN)", "assay": "Pre-emerge test, crop safety", "conditions": "pre-emerge, rated 14 days after application, 0 = no damage, 100 = complete death", "how_it_was_run": "(§1)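 Compounds in acetone were track-sprayed at 187 l/ha, 15–1000 g ai/ha, onto sandy loam pots. Pre-emerge seeds were sown one day before spraying, with surface watering afterwards. Post-emerge plants were at the 2–3 leaf stage and sprayed with 0.25% v/v non-ionic surfactant. Injury was rated 0–100 at 14 days.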"}, "[2]": {"test_system": "upland rice (Oryza sp., var. Tebonnet, RICE)", "assay": "Pre-emerge test, crop safety", "conditions": "pre-emerge, rated 14 days after application, 0 = no damage, 100 = complete death", "how_it_was_run": "as §1"}, "[3]": {"test_system": "redroot pigweed (Amaranthus retroflexus, AMARE)", "assay": "Pre-emerge test, greenhouse herbicide activity screening", "conditions": "pre-emerge, rated 14 days after application, 0 = no damage, 100 = complete death", "how_it_was_run": "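Herbicidal damage is scored 0 (none) to 100 (complete plant death) two weeks after a simulated field spray. Rates span 15–1000 g ai/ha, delivered in acetone at 187 l/ha. For post-emergence treatments, plants have 2–3 leaves and the spray carries 0.25% v/v non-ionic surfactant.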"}, "[4]": {"test_system": "johnsongrass (Sorghum halepense, SORHA)", "assay": "Post-emerge test, greenhouse herbicide activity screening", "conditions": "phytotoxicity rating 0-100 (0 no damage, 100 complete death), 14 days after application", "how_it_was_run": "(§2)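 Plants grown in 10 cm pots of sandy loam mix received acetone-dissolved compounds through a moving flat-fan nozzle. Doses ranged from 15 to 1000 g ai/ha. Pre-emerge pots were seeded one day earlier, post-emerge pots 8–21 days earlier. Fourteen days on, each pot was graded 0–100 for damage.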"}, "[5]": {"test_system": "barnyardgrass (Echinochloa crus-galli, ECHCG)", "assay": "Post-emerge test, greenhouse herbicide activity screening", "conditions": "phytotoxicity rating 0-100 (0 no damage, 100 complete death), 14 days after application", "how_it_was_run": "as §2"}, "[6]": {"test_system": "lambsquarters (Chenopodium album, CHEAL)", "assay": "Post-emerge test, greenhouse herbicide activity screening", "conditions": "phytotoxicity rating 0-100 (0 no damage, 100 complete death), 14 days after application", "how_it_was_run": "as §2"}, "[7]": {"test_system": "ivyleaf morningglory (Ipomoea hederacea, IPOHE)", "assay": "Post-emerge test, greenhouse herbicide activity screening", "conditions": "phytotoxicity rating 0-100 (0 no damage, 100 complete death), 14 days after application", "how_it_was_run": "as §2"}, "[8]": {"test_system": "redroot pigweed (Amaranthus retroflexus, AMARE)", "assay": "Post-emerge test, greenhouse herbicide activity screening", "conditions": "phytotoxicity rating 0-100 (0 no damage, 100 complete death), 14 days after application", "how_it_was_run": "as §2"}, "[9]": {"test_system": "green foxtail (Setaria viridis, SETVI)", "assay": "Post-emerge test, greenhouse herbicide activity screening", "conditions": "phytotoxicity rating 0-100 (0 no damage, 100 complete death), 14 days after application", "how_it_was_run": "as §2"}, "[10]": {"test_system": "velvetleaf (Abutilon theophrasti, ABUTH)", "assay": "Post-emerge test, greenhouse herbicide activity screening", "conditions": "phytotoxicity rating 0-100 (0 no damage, 100 complete death), 14 days after application", "how_it_was_run": "as §2"}, "[11]": {"test_system": "large crabgrass (Digitaria sanguinalis, DIGSA)", "assay": "Post-emerge test, greenhouse herbicide activity screening", "conditions": "phytotoxicity rating 0-100 (0 no damage, 100 complete death), 14 days after application", "how_it_was_run": "as §2"}, "[12]": {"test_system": "field corn (Zea mays L., var. Dekalb 535, CORN)", "assay": "Post-emerge test, crop safety", "conditions": "phytotoxicity rating 0-100 (0 no damage, 100 complete death), 14 days after application", "how_it_was_run": "as §1"}, "[13]": {"test_system": "upland rice (Oryza sp., var. Tebonnet, RICE)", "assay": "Post-emerge test, crop safety", "conditions": "phytotoxicity rating 0-100 (0 no damage, 100 complete death), 14 days after application", "how_it_was_run": "as §1"}, "[14]": {"test_system": "sicklepod (Cassia obtusifolia, CASOB)", "assay": "Pre-emerge test, greenhouse herbicide activity screening", "conditions": "pre-emerge, rated 14 days after application, 0 = no damage, 100 = complete death", "how_it_was_run": "as §1"}, "[15]": {"test_system": "johnsongrass (Sorghum halepense, SORHA)", "assay": "Pre-emerge test, greenhouse herbicide activity screening", "conditions": "pre-emerge, rated 14 days after application, 0 = no damage, 100 = complete death", "how_it_was_run": "as §1"}, "[16]": {"test_system": "barnyardgrass (Echinochloa crus-galli, ECHCG)", "assay": "Pre-emerge test, greenhouse herbicide activity screening", "conditions": "pre-emerge, rated 14 days after application, 0 = no damage, 100 = complete death", "how_it_was_run": "as §1"}, "[17]": {"test_system": "lambsquarters (Chenopodium album, CHEAL)", "assay": "Pre-emerge test, greenhouse herbicide activity screening", "conditions": "pre-emerge, rated 14 days after application, 0 = no damage, 100 = complete death", "how_it_was_run": "as §1"}, "[18]": {"test_system": "ivyleaf morningglory (Ipomoea hederacea, IPOHE)", "assay": "Pre-emerge test, greenhouse herbicide activity screening", "conditions": "pre-emerge, rated 14 days after application, 0 = no damage, 100 = complete death", "how_it_was_run": "as §1"}, "[19]": {"test_system": "green foxtail (Setaria viridis, SETVI)", "assay": "Pre-emerge test, greenhouse herbicide activity screening", "conditions": "pre-emerge, rated 14 days after application, 0 = no damage, 100 = complete death", "how_it_was_run": "as §1"}, "[20]": {"test_system": "velvetleaf (Abutilon theophrasti, ABUTH)", "assay": "Pre-emerge test, greenhouse herbicide activity screening", "conditions": "pre-emerge, rated 14 days after application, 0 = no damage, 100 = complete death", "how_it_was_run": "as §1"}, "[21]": {"test_system": "large crabgrass (Digitaria sanguinalis, DIGSA)", "assay": "Pre-emerge test, greenhouse herbicide activity screening", "conditions": "pre-emerge, rated 14 days after application, 0 = no damage, 100 = complete death", "how_it_was_run": "as §1"}}}
{"smiles": "Cn1c(C(F)(F)F)cc(=O)n(-c2c(F)cc(Cl)c(OCC#N)c2NC(=O)C(F)(F)F)c1=O", "note": "[2-11]", "values": [{"measurement": "Pre-emerge crop damage CORN (phytotoxicity rating, scale 0-100)", "setting": "[1]; 63 g ai/ha", "value": 0}, {"measurement": "Pre-emerge crop damage CORN (phytotoxicity rating, scale 0-100)", "setting": "[1]; 250 g ai/ha", "value": 10}, {"measurement": "Pre-emerge crop damage RICE (phytotoxicity rating, scale 0-100)", "setting": "[2]; 63 g ai/ha", "value": 10}, {"measurement": "Pre-emerge crop damage RICE (phytotoxicity rating, scale 0-100)", "setting": "[2]; 250 g ai/ha", "value": 50}, {"measurement": "Pre-emerge Herbicidal Activity AMARE (phytotoxicity rating, scale 0-100)", "setting": "[3]; 63 g ai/ha", "value": 30}, {"measurement": "Pre-emerge Herbicidal Activity AMARE (phytotoxicity rating, scale 0-100)", "setting": "[3]; 250 g ai/ha", "value": 100}, {"measurement": "Post-emerge Herbicidal Activity SORHA", "setting": "[4]; 63 g ai/ha", "value": 0}, {"measurement": "Post-emerge Herbicidal Activity SORHA", "setting": "[4]; 250 g ai/ha", "value": 0}, {"measurement": "Post-emerge Herbicidal Activity ECHCG", "setting": "[5]; 63 g ai/ha", "value": 0}, {"measurement": "Post-emerge Herbicidal Activity ECHCG", "setting": "[5]; 250 g ai/ha", "value": 0}, {"measurement": "Post-emerge Herbicidal Activity CHEAL", "setting": "[6]; 63 g ai/ha", "value": 40}, {"measurement": "Post-emerge Herbicidal Activity CHEAL", "setting": "[6]; 250 g ai/ha", "value": 65}, {"measurement": "Post-emerge Herbicidal Activity IPOHE", "setting": "[7]; 63 g ai/ha", "value": 50}, {"measurement": "Post-emerge Herbicidal Activity IPOHE", "setting": "[7]; 250 g ai/ha", "value": 60}, {"measurement": "Post-emerge Herbicidal Activity AMARE", "setting": "[8]; 63 g ai/ha", "value": 0}, {"measurement": "Post-emerge Herbicidal Activity AMARE", "setting": "[8]; 250 g ai/ha", "value": 30}, {"measurement": "Post-emerge Herbicidal Activity SETVI", "setting": "[9]; 63 g ai/ha", "value": 0}, {"measurement": "Post-emerge Herbicidal Activity SETVI", "setting": "[9]; 250 g ai/ha", "value": 20}, {"measurement": "Post-emerge Herbicidal Activity ABUTH", "setting": "[10]; 63 g ai/ha", "value": 80}, {"measurement": "Post-emerge Herbicidal Activity ABUTH", "setting": "[10]; 250 g ai/ha", "value": 100}, {"measurement": "Post-emerge Herbicidal Activity DIGSA", "setting": "[11]; 63 g ai/ha", "value": 0}, {"measurement": "Post-emerge Herbicidal Activity DIGSA", "setting": "[11]; 250 g ai/ha", "value": 0}, {"measurement": "Post-emerge Herbicidal Activity CORN (crop damage)", "setting": "[12]; 63 g ai/ha", "value": 5}, {"measurement": "Post-emerge Herbicidal Activity CORN (crop damage)", "setting": "[12]; 250 g ai/ha", "value": 5}, {"measurement": "Post-emerge Herbicidal Activity RICE (crop damage)", "setting": "[13]; 63 g ai/ha", "value": 0}, {"measurement": "Post-emerge Herbicidal Activity RICE (crop damage)", "setting": "[13]; 250 g ai/ha", "value": 0}, {"measurement": "Pre-emerge Herbicidal Activity CASOB (phytotoxicity rating, scale 0-100)", "setting": "[14]; 63 g ai/ha", "value": 0}, {"measurement": "Pre-emerge Herbicidal Activity CASOB (phytotoxicity rating, scale 0-100)", "setting": "[14]; 250 g ai/ha", "value": 60}, {"measurement": "Pre-emerge Herbicidal Activity SORHA (phytotoxicity rating, scale 0-100)", "setting": "[15]; 63 g ai/ha", "value": 0}, {"measurement": "Pre-emerge Herbicidal Activity SORHA (phytotoxicity rating, scale 0-100)", "setting": "[15]; 250 g ai/ha", "value": 50}, {"measurement": "Pre-emerge Herbicidal Activity ECHCG (phytotoxicity rating, scale 0-100)", "setting": "[16]; 63 g ai/ha", "value": 0}, {"measurement": "Pre-emerge Herbicidal Activity ECHCG (phytotoxicity rating, scale 0-100)", "setting": "[16]; 250 g ai/ha", "value": 40}, {"measurement": "Pre-emerge Herbicidal Activity CHEAL (phytotoxicity rating, scale 0-100)", "setting": "[17]; 63 g ai/ha", "value": 100}, {"measurement": "Pre-emerge Herbicidal Activity CHEAL (phytotoxicity rating, scale 0-100)", "setting": "[17]; 250 g ai/ha", "value": 100}, {"measurement": "Pre-emerge Herbicidal Activity IPOHE (phytotoxicity rating, scale 0-100)", "setting": "[18]; 63 g ai/ha", "value": 70}, {"measurement": "Pre-emerge Herbicidal Activity IPOHE (phytotoxicity rating, scale 0-100)", "setting": "[18]; 250 g ai/ha", "value": 100}, {"measurement": "Pre-emerge Herbicidal Activity SETVI (phytotoxicity rating, scale 0-100)", "setting": "[19]; 63 g ai/ha", "value": 0}, {"measurement": "Pre-emerge Herbicidal Activity SETVI (phytotoxicity rating, scale 0-100)", "setting": "[19]; 250 g ai/ha", "value": 100}, {"measurement": "Pre-emerge Herbicidal Activity ABUTH (phytotoxicity rating, scale 0-100)", "setting": "[20]; 63 g ai/ha", "value": 90}, {"measurement": "Pre-emerge Herbicidal Activity ABUTH (phytotoxicity rating, scale 0-100)", "setting": "[20]; 250 g ai/ha", "value": 100}, {"measurement": "Pre-emerge Herbicidal Activity DIGSA (phytotoxicity rating, scale 0-100)", "setting": "[21]; 63 g ai/ha", "value": 0}, {"measurement": "Pre-emerge Herbicidal Activity DIGSA (phytotoxicity rating, scale 0-100)", "setting": "[21]; 250 g ai/ha", "value": 60}]}
